In EP0318860B1, “Substituted alkylamine derivatives” (BANYU PHARMACEUTICAL CO., LTD., priority 1987, dated 1989) one finds IC50 data, which are given here for 31 compounds.

SMILES strings stand for the structures. Where a name gives a salt, the structure may show the parent alone.

The target in this experiment is T1, rat squalene epoxidase (Rattus norvegicus, UniProt P52020).
T1 construct: Livers were extracted and homogenized; from tissue; host or cells: liver of SD-strain female rats; microsomes solubilized with 2 % Triton X-100, 105000 x g supernatant
T1 sequence (P52020 whole entry): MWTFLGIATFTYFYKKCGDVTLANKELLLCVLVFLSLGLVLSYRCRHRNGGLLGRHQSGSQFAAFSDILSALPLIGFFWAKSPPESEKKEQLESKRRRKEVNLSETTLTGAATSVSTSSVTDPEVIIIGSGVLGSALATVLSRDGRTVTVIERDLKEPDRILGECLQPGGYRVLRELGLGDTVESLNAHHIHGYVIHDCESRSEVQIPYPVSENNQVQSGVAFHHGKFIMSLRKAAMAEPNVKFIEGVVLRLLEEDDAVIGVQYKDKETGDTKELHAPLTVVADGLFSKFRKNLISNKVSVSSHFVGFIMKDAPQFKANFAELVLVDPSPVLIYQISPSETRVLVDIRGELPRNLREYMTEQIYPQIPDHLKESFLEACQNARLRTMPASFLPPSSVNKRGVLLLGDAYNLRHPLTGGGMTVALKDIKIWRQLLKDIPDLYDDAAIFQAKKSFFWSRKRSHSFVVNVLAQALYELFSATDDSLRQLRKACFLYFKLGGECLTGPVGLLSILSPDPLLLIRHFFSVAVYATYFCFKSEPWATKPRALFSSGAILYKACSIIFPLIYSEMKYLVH
Kind of experiment: Squalene epoxidase inhibiting activity (3H-squalene to squalene-2,3-epoxide, solubilized liver microsome fraction). It counts as biochemical. As to conditions: 8 µM 3H-squalene, 37 °C, 30 minutes, read-out: 50 % inhibitory concentration (IC50). How it is done: The rat squalene epoxidase was prepared by the method described in J. Biol. Chem., vol.
SD-strain female rats were killed by exsanguination. Livers were extracted and homogenized with in the presence of 2 volumes of 0.1M Tris-HCl buffer (pH 7.5). The homogenate was centrifuged at 9750 Xg for 10 minutes. The supernatant fraction was further centrifuged at 105000 Xg for 1 hour. The sediment was washed with 0.1M Tris-HCl buffer (pH 7.5), and then centrifuged at 105000 Xg for 1 hour. The microsomes obtained were suspended in 0.1M Tris-HCl buffer (pH 7.5) so that the amount of proteins was 40 mg/ml, and under ice cooling, the suspension was stirred in the presence of 2 % Triton X-100 to solubilize the enzyme. After the solubilization, the solution was diluted to a Triton X-100 concentration of 0.5 % with 1 mM EDTA and 1 mM dithiothreitol, and centrifuged at 105000 Xg for 1 hour. The resulting supernatant fraction was used in the following test as a squalene epoxidase fraction.
The squalene epoxidase activity was assayed in accordance with the method described in J. Biol. Chem., vol.
Three microliters of a dimethyl sulfoxide solution of a test drug was added to a solution composed of 0.2 ml of the squalene epoxidase fraction prepared in (1) [proteins 0.4 mg, 0.5 % Triton X-100, […] Tris-HCl buffer (pH 7.5)], 100 µM FAD, 1 mM NADPH, 1 mM EDTA and 8 µM ³H-squalene-Tween 80 emulsion to adjust the total amount of the solution to 0.3 ml. The solution was incubated at 37 °C for 30 minutes with shaking. Then, 0.3 ml of a 10 % methanolic potassium hydroxide was added to stop the reaction, and the reaction mixture was left to stand at room temperature for 1 hour. The non-saponified material was extracted with petroleum ether, and the solvent was evaporated under a nitrogen stream. […] The position of the resulting ³H-squalene-2,3-epoxide on TLC was determined using ergosterol acetate as a marker, and the ³H-squalene-2,3-epoxide portion on the TLC was cut off. The TLC strip was immersed in a toluene-type scintillator, and measured by a liquid scintillation counter.

For the compound `CN(C/C=C/C#CC(C)(C)C)Cc1cccc(OCc2cccc(-c3ccccc3)c2)c1` [Compound 74, (E)-N-(6,6-dimethyl-2-hepten-4-ynyl)-N-methyl-3-(3-phenylbenzyloxy)benzylamine hydrochloride], the IC50 amounted to 570 nM.
On to `CN(C/C=C/C#CC(C)(C)C)Cc1cccc(OCc2cccc(-c3ccco3)c2)c1` [Compound 75, (E)-N-(6,6-dimethyl-2-hepten-4-ynyl)-N-methyl-3-[3-(2-furyl)benzyloxy]benzylamine hydrochloride], for which the IC50 turned out to be 140 nM.
With `CN(C/C=C/C#CC(C)(C)C)Cc1cccc(OCc2cccc(-c3ncco3)c2)c1` [Compound 76, (E)-N-(6,6-dimethyl-2-hepten-4-ynyl)-N-methyl-3-[3-(2-oxazolyl)benzyloxy]benzylamine] the figure was 1200 nM; with `CN(C/C=C/C#CC(C)(C)C)Cc1cccc(OCc2cccc(-c3nccs3)c2)c1` [Compound 77, (E)-N-(6,6-dimethyl-2-hepten-4-ynyl)-N-methyl-3-[3-(2-thiazolyl)benzyloxy]benzylamine], 1200 nM.
On to `CN(C/C=C/C#CC(C)(C)C)Cc1cccc(OCc2cccc(-n3cccc3)c2)c1` [Compound 81, (E)-N-(6,6-dimethyl-2-hepten-4-ynyl)-N-methyl-3-[3-(1-pyrrolyl)benzyloxy]benzylamine], for which the IC50 amounted to 14 nM.
In the case of `Cc1ccoc1COc1cccc(CN(C)C/C=C/C#CC(C)(C)C)c1` [Compound 82, (E)-N-(6,6-dimethyl-2-hepten-4-ynyl)-N-methyl-[(3-methyl-2-furyl)methyloxy]benzylamine], the IC50 stood at 870 nM.
As to `Cc1occc1COc1cccc(CN(C)C/C=C/C#CC(C)(C)C)c1` [Compound 83, (E)-N-(6,6-dimethyl-2-hepten-4-ynyl)-N-methyl-3-[(2-methyl-3-furyl)methyloxy]benzylamine], the IC50 came to 1900 nM.
`CN(C/C=C/C#CC(C)(C)C)Cc1cccc(OCc2cccs2)c1` [Compound 86, (E)-N-(6,6-dimethyl-2-hepten-4-ynyl)-N-methyl-3-(2-thienylmethyloxy)benzylamine]: the IC50 was found to be 3300 nM.
Consider `CN(C/C=C/C#CC(C)(C)C)Cc1cccc(OCc2cccc3cccnc23)c1` [Compound 87, (E)-N-(6,6-dimethyl-2-hepten-4-ynyl)-N-methyl-3-(8-quinolylmethyloxy)benzylamine hydrochloride], for which the IC50 worked out at 3500 nM.
`C/C=C(\C)COc1cccc(CN(C)C/C=C/C#CC(C)(C)C)c1` [Compound 90, N-[(E)-6,6-dimethyl-2-hepten-4-ynyl]-N-methyl-3-[(E)-2-methyl-2-butenyloxy]benzylamine hydrochloride]: the IC50 worked out at 5500 nM.
`CC(C)=C(C)COc1cccc(CN(C)C/C=C/C#CC(C)(C)C)c1` [Compound 92, (E)-N-(6,6-dimethyl-2-hepten-4-ynyl)-N-methyl-3-(2,3-dimethyl-2-butenyloxy)benzylamine]: the IC50 stood at 3300 nM.
In the case of `CN(C/C=C/C#CC(C)(C)C)Cc1cccc(OCc2cccc(C=O)c2)c1` [Compound 95, (E)-N-(6,6-dimethyl-2-hepten-4-ynyl)-N-methyl-3-(3-formylbenzyloxy)benzylamine], the IC50 was determined as 6800 nM.
Turning to `CN(C/C=C/C#CC(C)(C)C)Cc1cccc(OCc2cccc(CO)c2)c1` [Compound 96, (E)-N-(6,6-dimethyl-2-hepten-4-ynyl)-N-methyl-3-(3-hydroxymethylbenzyloxy)benzylamine], the IC50 turned out to be 840 nM.
With `Cc1ccccc1/C=C/c1cccc(CN(C)C/C=C/C#CC(C)(C)C)c1` [Compound 99, N-[(E)-6,6-dimethyl-2-hepten-4-ynyl]-N-methyl-3-[(E)-o-methylstyryl]benzylamine], the IC50 was 2000 nM.
For the compound `CN(C/C=C/C#CC(C)(C)C)Cc1cccc(/C=C/c2cccc3ccccc23)c1` [Compound 100, N-[(E)-6,6-dimethyl-2-hepten-4-ynyl]-N-methyl-3-[(E)-2-(1-naphthylvinyl)]benzylamine], the IC50 stood at 120 nM.
On to `CN(C/C=C/C#CC(C)(C)C)Cc1cccc(C#Cc2ccccc2)c1` [Compound 101, (E)-N-(6,6-dimethyl-2-hepten-4-ynyl)-N-methyl-3-(2-phenylethynyl)benzylamine], for which the IC50 is 2100 nM.
With `CN(C/C=C/C#CC(C)(C)C)Cc1cccc(NCc2ccccc2)c1` [Compound 102, (E)-N-(6,6-dimethyl-2-hepten-4-ynyl)-N-methyl-3-benzylaminobenzylamine], the IC50 was found to be 2100 nM.
Consider `CN(C/C=C/C#CC(C)(C)C)Cc1cccc(CNc2ccccc2)c1` [Compound 104, (E)-N-[6,6-dimethyl-2-hepten-4-ynyl]-N-methyl-3-anilinomethylbenzylamine hydrochloride], for which the IC50 came out at 7700 nM.
With `CN(C/C=C/C#CC(C)(C)C)Cc1cccc(/C=C/c2ccccn2)c1` [Compound 108, (E)-N-(6,6-dimethyl-2-hepten-4-ynyl)-N-methyl-3-[(E)-2-(2-pyridyl)vinyl]benzylamine] the figure was 450 nM; with `Cc1ccccc1COc1ccnc(CN(C)C/C=C/C#CC(C)(C)C)c1` [Compound 112, (E)-N-(6,6-dimethyl-2-hepten-4-ynyl)-N-methyl-4-(2-methylbenzyloxy)-2-pyridylmethylamine], 690 nM.
For `CN(C/C=C/C#CC(C)(C)C)Cc1ccc(/C=C/c2ccccc2)o1` [Compound 115, N-[(E)-6,6-dimethyl-2-hepten-4-ynyl]-N-methyl-5-[(E)-styryl]furfurylamine], the IC50 was 270 nM.
On to `CN(C/C=C/C#CC(C)(C)C)Cc1csc(/C=C/c2ccccc2)n1` [Compound 117, N-[(E)-6,6-dimethyl-2-hepten-4-ynyl]-N-methyl-2-[(E)-styryl]-4-thiazolylmethylamine], for which the IC50 worked out at 520 nM.
Regarding `CCN(C/C=C/C#CC(C)(C)C)Cc1cccc(OCc2cccc(-n3cccc3)c2)c1` [Compound 119, (E)-N-(6,6-dimethyl-2-hepten-4-ynyl)-N-ethyl-3-[3-(1-pyrrolyl)benzyloxy]benzylamine], the IC50 was found to be 7.1 nM.
For the compound `CCN(C/C=C/C#CC(C)(C)C)Cc1cccc(OCc2cccc(-c3cnco3)c2)c1` [Compound 120, (E)-N-(6,6-dimethyl-2-hepten-4-ynyl)-N-ethyl-3-[3-(5-oxazolyl)benzyloxy]benzylamine], the IC50 turned out to be 2.7 nM.
On to `CCN(C/C=C/C#CC(C)(C)C)Cc1cccc(OCc2cccc(-c3cncs3)c2)c1` [Compound 121, (E)-N-(6,6-dimethyl-2-hepten-4-ynyl)-N-ethyl-3-[3-(5-thiazolyl)benzyloxy]benzylamine], for which the IC50 amounted to 26 nM.
With `CCCN(C/C=C/C#CC(C)(C)C)Cc1cccc(OCc2cccc(-n3cccc3)c2)c1` [Compound 122, (E)-N-(6,6-dimethyl-2-hepten-4-ynyl)-N-propyl-3-[3-(1-pyrrolyl)benzyloxy]benzylamine] the figure was 13 nM; with `CCCN(C/C=C/C#CC(C)(C)C)Cc1cccc(OCc2cccc(-c3cnco3)c2)c1` [Compound 123, (E)-N-(6,6-dimethyl-2-hepten-4-ynyl)-N-propyl-3-[3-(5-oxazolyl)benzyloxy]benzylamine], 34 nM.
Regarding `COC(C)(C)C#C/C=C/CN(C)Cc1cccc(OCc2ccccc2)c1` [Compound 126, (E)-N-(6-methoxy-6-methyl-2-hepten-4-ynyl)-N-methyl-3-benzyloxybenzylamine], the IC50 is 2200 nM.
Turning to `Cc1ccccc1COc1cccc(CN(C)C/C=C/C#CC2(C)CC2)c1` [Compound 131, (E)-N-methyl-N-[5-(1-methylcyclopropyl)-2-penten-4-ynyl]-3-(2-methylbenzyloxy)benzylamine], the IC50 is 1000 nM.
With `Cc1ccccc1COc1cccc(CN(C)C/C=C/C=C/C(C)(C)C)c1` [Compound 132, (E),(E)-N-(6,6-dimethyl-2,4-heptadienyl)-N-methyl-3-(2-methylbenzyloxy)benzylamine] the figure was 5400 nM; with `CN(C/C=C/c1ccccc1)Cc1cccc2ccccc12` [naftifine, reference compound], over 100000 nM.
